Each compound was assayed against T1, human RORgT (Homo sapiens, UniProt P51449) (assay: RORgT Gal4 Luciferase Reporter Gene Assay). Conditions: engineered Jurkat cells overexpressing RORgT (LBD or full length) fused with Gal4 Luc reporter; 18 hours incubation.
T1 construct: expressed in transfected cells; host or cells: engineered Jurkat cells (Jurkat pEx/Gal/hRORγ CLBD/HYG pG5luc/blast)
T1 sequence (P51449 267-516): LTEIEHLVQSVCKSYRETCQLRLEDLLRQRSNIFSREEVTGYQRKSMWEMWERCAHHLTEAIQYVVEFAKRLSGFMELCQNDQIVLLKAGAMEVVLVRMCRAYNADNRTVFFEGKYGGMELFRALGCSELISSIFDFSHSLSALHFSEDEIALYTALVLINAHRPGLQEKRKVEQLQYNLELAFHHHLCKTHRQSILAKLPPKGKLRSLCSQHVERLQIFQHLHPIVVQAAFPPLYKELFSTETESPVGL
Type: cell-based
An EC50 of 32 nM was found for `O=C(C1CCS(=O)(=O)CC1)N1CC[C@](c2ccc(OCc3c(Cl)cccc3Cl)cc2)(S(=O)(=O)c2ccccc2)C1` [Example 33, 4-[(3R)-3-(benzenesulfonyl)-3-{4-[(2,6-dichlorophenyl)methoxy]phenyl}pyrrolidine-1-carbonyl]-1λ^6-thiane-1,1-dione] in this work.
An EC50 of 39 nM was found for `O=C(C1CCS(=O)(=O)CC1)N1CCC(c2ccc(OCc3c(F)cccc3Cl)cc2)(S(=O)(=O)c2ccccc2)C1` (stereo not shown) [Example 29, 4-[3-(benzenesulfonyl)-3-{4-[(2-chloro-6-fluorophenyl)methoxy]phenyl}pyrrolidine-1-carbonyl]-1λ^6-thiane-1,1-dione] in this work.
An EC50 of 328 nM was found for `O=S(=O)(c1ccccc1)C1(c2ccc(OCC3CCCCC3)cc2)CCCC1` [Example 10, 1-[1-(benzenesulfonyl)cyclopentyl]-4-(cyclohexylmethoxy)benzene] in this work.
An EC50 of 42 nM was found for `O=C(N1CC[C@](c2ccc(OCc3c(Cl)cccc3C(F)(F)F)cc2)(S(=O)(=O)c2ccc(F)cc2)C1)C1(O)CCS(=O)(=O)CC1` [Example 46, 4-[(3R)-3-(4-{[2-chloro-6-(trifluoromethyl)phenyl]methoxy}phenyl)-3-(4-fluorobenzenesulfonyl)pyrrolidine-1-carbonyl]-4-hydroxy-1λ^6-thiane-1,1-dione] in this work.
An EC50 of 382 nM was found for `O=S(=O)(c1cccc(C(F)(F)F)c1)C1(c2ccc(OCc3ccccc3)cc2)CCCC1` [Example 8, 1-(benzyloxy)-4-{1-[3-(trifluoromethyl)benzenesulfonyl]cyclopentyl}benzene] in this work.
An EC50 of 84 nM was found for `O=C(C1CCS(=O)(=O)CC1)N1CCC(c2ccc(OCc3ccccc3C(F)(F)F)cc2)(S(=O)(=O)c2ccccc2)C1` (stereo not shown) [Example 32, 4-[3-(benzenesulfonyl)-3-(4-{[2-(trifluoromethyl)phenyl]methoxy}phenyl)pyrrolidine-1-carbonyl]-1λ^6-thiane-1,1-dione] in this work.
An EC50 of 58 nM was found for `O=C(O)[C@H]1CC[C@H](C(=O)N2CC[C@](c3ccc(OCc4c(Cl)cccc4Cl)cc3)(S(=O)(=O)c3ccc(F)cc3)C2)CC1` [Example 35, (1r,4r)-4-[(3R)-3-{4-[(2,6-dichlorophenyl)methoxy]phenyl}-3-(4-fluorobenzenesulfonyl)pyrrolidine-1-carbonyl]cyclohexane-1-carboxylic acid] in this work.
An EC50 of 17 nM was found for `O=C(C1CCS(=O)(=O)CC1)N1CC[C@](c2ccc(OCc3c(Cl)cccc3Cl)cc2)(S(=O)(=O)c2ccc(F)cc2)C1` [Example 36, 4-[(3R)-3-{4-[(2,6-dichlorophenyl)methoxy]phenyl}-3-(4-fluorobenzenesulfonyl)pyrrolidine-1-carbonyl]-1λ^6-thiane-1,1-dione] in this work.
An EC50 of 293 nM was found for `O=C(O)[C@H]1CC[C@H](C(=O)N2CC[C@](c3ccc(OCc4c(Cl)cccc4C(F)(F)F)cc3)(S(=O)(=O)c3ccc(F)cc3)C2)CC1` [Example 47, (1r,4r)-4-[(3R)-3-(4-{[2-chloro-6-(trifluoromethyl)phenyl]methoxy}phenyl)-3-(4-fluorobenzenesulfonyl)pyrrolidine-1-carbonyl]cyclohexane-1-carboxylic acid] in this work.
An EC50 of 77 nM was found for `C[C@H](Oc1ccc([C@]2(S(=O)(=O)c3ccc(F)cc3)CCN(C(=O)C3CCS(=O)(=O)CC3)C2)cc1)c1ccccc1` [Example 37, 4-[(3R)-3-(4-fluorobenzenesulfonyl)-3-{4-[(1S)-1-phenylethoxy]phenyl}pyrrolidine-1-carbonyl]-1λ^6-thiane-1,1-dione] in this work.
An EC50 of 195 nM was found for `NC(=O)[C@H]1CC[C@H](C(=O)N2CC[C@](c3ccc(OCc4c(F)cccc4C(F)(F)F)cc3)(S(=O)(=O)c3ccc(F)cc3)C2)CC1` [Example 44, (1r,4r)-4-[(3R)-3-(4-{[2-fluoro-6-(trifluoromethyl)phenyl]methoxy}phenyl)-3-(4-fluorobenzenesulfonyl)pyrrolidine-1-carbonyl]cyclohexane-1-carboxamide] in this work.
An EC50 of 552 nM was found for `O=C(O)[C@H]1CC[C@H](C(=O)N2CCC(c3ccc(OCc4c(Cl)cccc4Cl)cc3)(S(=O)(=O)c3ccccc3)C2)CC1` (stereo partly shown) [Example 24, (1r,4r)-4-[3-(benzenesulfonyl)-3-{4-[(2,6-dichlorophenyl)methoxy]phenyl}pyrrolidine-1-carbonyl]cyclohexane-1-carboxylic acid] in this work.
An EC50 of 28 nM was found for `O=C(C1CCS(=O)(=O)CC1)N1CCC(c2ccc(OCc3c(F)cccc3C(F)(F)F)cc2)(S(=O)(=O)c2ccccc2)C1` (stereo not shown) [Example 30, 4-[3-(benzenesulfonyl)-3-(4-{[2-fluoro-6-(trifluoromethyl)phenyl]methoxy}phenyl)pyrrolidine-1-carbonyl]-1λ^6-thiane-1,1-dione] in this work.
An EC50 of 240 nM was found for `O=S(=O)(c1cccc(Cl)c1)C1(c2ccc(OCc3ccccc3)cc2)CCCC1` [Example 5, 1-(benzyloxy)-4-[1-(3-chlorobenzenesulfonyl)cyclopentyl]benzene] in this work.
An EC50 of 46 nM was found for `O=C(C1CCS(=O)(=O)CC1)N1CCC(c2ccc(OCc3c(Cl)cccc3Cl)cc2)(S(=O)(=O)c2ccccc2)C1` (stereo not shown) [Example 23, 4-[3-(benzenesulfonyl)-3-{4-[(2,6-dichlorophenyl)methoxy]phenyl}pyrrolidine-1-carbonyl]-1λ^6-thiane-1,1-dione] in this work.
An EC50 of 139 nM was found for `O=S(=O)(c1ccc(F)cc1)C1(c2ccc(OCCc3ccccc3)cc2)CCCC1` [Example 4, 1-[1-(4-fluorobenzenesulfonyl)cyclopentyl]-4-(2-phenylethoxy)benzene] in this work.
An EC50 of 423 nM was found for `O=S(=O)(c1ccccc1)C1(c2ccc(OCCC3CC3)cc2)CCCC1` [Example 14, 1-[1-(benzenesulfonyl)cyclopentyl]-4-(2-cyclopropylethoxy)benzene] in this work.
An EC50 of 77 nM was found for `O=C(Cc1ccncc1)N1CCC(c2ccc(OCc3c(Cl)cccc3Cl)cc2)(S(=O)(=O)c2ccccc2)C1` (stereo not shown) [Example 26, 1-[3-(benzenesulfonyl)-3-{4-[(2,6-dichlorophenyl)methoxy]phenyl}pyrrolidin-1-yl]-2-(pyridin-4-yl)ethan-1-one] in this work.
An EC50 of 18 nM was found for `O=C(N1CC[C@](c2ccc(OCc3c(F)cccc3C(F)(F)F)cc2)(S(=O)(=O)c2ccccc2)C1)C1(O)CCS(=O)(=O)CC1` [Example 40, 4-[(3R)-3-(benzenesulfonyl)-3-(4-{[2-fluoro-6-(trifluoromethyl)phenyl]methoxy}phenyl)pyrrolidine-1-carbonyl]-4-hydroxy-1λ^6-thiane-1,1-dione] in this work.
An EC50 of 351 nM was found for `NC(=O)[C@H]1CC[C@H](C(=O)N2CC[C@](c3ccc(OCc4c(Cl)cccc4C(F)(F)F)cc3)(S(=O)(=O)c3ccc(F)cc3)C2)CC1` [Example 45, (1r,4r)-4-[(3R)-3-(4-{[2-chloro-6-(trifluoromethyl)phenyl]methoxy}phenyl)-3-(4-fluorobenzenesulfonyl)pyrrolidine-1-carbonyl]cyclohexane-1-carboxamide] in this work.
An EC50 of 810 nM was found for `O=C1NC(=O)C(CC(=O)N2CCC(c3ccc(OCc4ccccc4)cc3)(S(=O)(=O)c3ccc(F)cc3)C2)S1` (stereo not shown) [Example 20, 5-(2-{3-[4-(benzyloxy)phenyl]-3-(4-fluorobenzenesulfonyl)pyrrolidin-1-yl}-2-oxoethyl)-1,3-thiazolidine-2,4-dione] in this work.
An EC50 of 88 nM was found for `O=C(O)[C@H]1CC[C@H](C(=O)N2CC[C@](c3ccc(OCc4c(F)cccc4C(F)(F)F)cc3)(S(=O)(=O)c3ccccc3)C2)CC1` [Example 41, (1r,4r)-4-[(3R)-3-(benzenesulfonyl)-3-(4-{[2-fluoro-6-(trifluoromethyl)phenyl]methoxy}phenyl)pyrrolidine-1-carbonyl]cyclohexane-1-carboxylic acid] in this work.

Reference: patent publication US12012374B2, “Agonists of ROR GAMMAt” (BRISTOL-MYERS SQUIBB COMPANY, priority 2019, dated 2024)
